According to patent publication US7342027B2 (Yuhan Corporation, priority 2002, dated 2008):
pIC50: −log10 of the molar value. Counter-ions that a name gives are not always drawn.

What was measured:
Type in all cases: biochemical
[1] = molecular target: T1, Cathepsin C (Sigma, C8511) (Bos taurus, UniProt Q3ZCJ8); assay: Selectivity study: cathepsin C (Gly-Phe-pNA); conditions: 1 hour at 37° C., read-out: Cathepsins (IC50, nM) C
T1 construct: purchased Sigma C8511
Description: (§1) Test 2: Selectivity Study
(§2) Selectivity study for the compounds of the present invention was performed using cathepsin C (Sigma, C8511), cathepsin G (Calbiochem, 219373), cathepsin H (Calbiochem, 219388), cathepsin L (Calbiochem, 219402), and cathepsin S (Eur. J. Biochem. 236, 558 (1996) as enzyme sources.
(§3) Cathepsin C (Sigma, C8511) was dissolved in D.W. buffer (pH 5.5). All inhibitors were prepared in dimethyl sulfoxide (DMSO). In vitro assays for cathepsin C were conducted with Gly-Phe-pNA (Sigma, G-0142) as a substrate. Samples were pre-incubated for 10 minutes at 37° C. Reaction was initiated by the addition of enzyme to samples, which were then incubated for 1 hour at 37° C. The absorbance of p-nitroaniline released was monitored at 405 nm using spectrophotometer.
(§4) The concentrations of the test compounds, which inhibit 50% of cathepsin s C, G, H, L and S activity, are represented as IC50 in Table 2.

[2] = molecular target: T2, Cathepsin G (Calbiochem, 219373) (Homo sapiens, UniProt P08311); assay: Selectivity study: cathepsin G (Suc-Ala-Ala-Pro-Phe-pNA); conditions: 1 hour at 25° C., read-out: Cathepsins (IC50, nM) G
T2 construct: purchased Calbiochem 219373
T2 sequence (P08311 21-244): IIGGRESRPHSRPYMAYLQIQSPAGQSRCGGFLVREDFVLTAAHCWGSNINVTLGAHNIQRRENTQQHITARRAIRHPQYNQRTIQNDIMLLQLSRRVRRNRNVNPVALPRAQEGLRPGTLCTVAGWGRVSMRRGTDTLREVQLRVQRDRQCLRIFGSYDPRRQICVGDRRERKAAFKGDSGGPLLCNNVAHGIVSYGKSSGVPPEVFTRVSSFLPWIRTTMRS
Description: as §1, §2
as §3, with “Cathepsin G (Calbiochem, 219373)” for “Cathepsin C (Sigma, C8511)”, “in 50 mM NaOAc and 150 mM NaCl” for “in D.W.”, “cathepsin G” for “cathepsin C”, “with Suc-Ala-Ala-Pro-Phe-pNA (Calbiochem, 219407)” for “with Gly-Phe-pNA (Sigma, G-0142)”, “at 25°” for “at 37°”
as §4

[3] = molecular target: T3, Cathepsin H (Calbiochem, 219388) (Homo sapiens, UniProt P09668); assay: Selectivity study: cathepsin H (L-Arg-pNA); conditions: 1 hour at 40° C., read-out: Cathepsins (IC50, nM) H
T3 construct: purchased Calbiochem 219388
T3 sequence (P09668 98-335): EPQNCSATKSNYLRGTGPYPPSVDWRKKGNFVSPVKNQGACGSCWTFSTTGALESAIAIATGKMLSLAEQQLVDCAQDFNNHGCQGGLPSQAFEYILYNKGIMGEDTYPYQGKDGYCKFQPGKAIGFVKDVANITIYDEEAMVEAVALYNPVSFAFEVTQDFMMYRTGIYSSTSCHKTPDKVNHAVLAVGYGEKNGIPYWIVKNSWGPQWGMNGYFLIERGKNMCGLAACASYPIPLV
Description: as §1, §2
Cathepsin H (Calbiochem, 219388) was dissolved in 20 mM NaOAc, 1 mM EDTA-2Na and 100 mM NaCl buffer (pH 4.6). All inhibitors were prepared dimethyl sulfoxide (DMSO). In vitro assays for cathepsin H were conducted with L-Arg-pNA (BACHEM, 1-1160) as a substrate. Samples were pre-incubated for 5 minutes at 40° C. Reaction was initiated by the addition of enzyme to samples, which were then incubated for 1 hour at 40° C. The absorbance of p-nitroaniline released was monitored at 405 nm using spectrophotometer.
as §4

[4] = molecular target: T4, Cathepsin L (Calbiochem, 219402) (Homo sapiens, UniProt P07711); assay: Selectivity study: cathepsin L (Z-Phe-Arg-AMC); conditions: 1 hour at 25° C., read-out: Cathepsins (IC50, nM) L
T4 construct: purchased Calbiochem 219402
T4 sequence (P07711 114-333): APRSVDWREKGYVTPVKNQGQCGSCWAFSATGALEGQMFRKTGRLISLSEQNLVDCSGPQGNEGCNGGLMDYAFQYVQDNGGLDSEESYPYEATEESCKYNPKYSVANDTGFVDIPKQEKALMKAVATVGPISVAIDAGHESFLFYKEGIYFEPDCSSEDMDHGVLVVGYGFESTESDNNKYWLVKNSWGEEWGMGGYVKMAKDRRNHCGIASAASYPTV
Description: as §1, §2
Cathepsin L (Calbiochem, 219402) was dissolved in 50 mM NaOAc buffer (pH 5.0). All inhibitors were prepared in dimethyl sulfoxide (DMSO). […] Samples were pre-incubated for 5 minutes at 25° C. Reaction was initiated by the addition of enzyme to samples, which were then incubated for 1 hour at 25° C. The fluorescence of AMC (7-amino-4-methylcoumarin) was monitored at 460 nm (excitation wavelength 360 nm), using fluorescence spectrophotometer.
as §4

[5] = molecular target: Recombinant human Cathepsin S (Homo sapiens, UniProt P25774); assay: Selectivity study: cathepsin S (Z-Val-Val-AMC); conditions: 30 minutes at 37° C., read-out: Cathepsins (IC50, nM) S
Chain of Recombinant human Cathepsin S (P25774 115-331): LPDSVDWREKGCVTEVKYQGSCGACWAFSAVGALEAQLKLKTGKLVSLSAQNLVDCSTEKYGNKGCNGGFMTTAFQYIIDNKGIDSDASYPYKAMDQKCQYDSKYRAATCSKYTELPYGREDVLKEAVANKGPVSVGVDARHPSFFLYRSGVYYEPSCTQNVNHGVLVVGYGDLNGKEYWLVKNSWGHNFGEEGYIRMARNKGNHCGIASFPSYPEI
Description: as §1, §2
Recombinant human Cathepsin S (Eur. J. Biochem. 236, 558 (1996) was dissolved in 0.1 M NaOAc 1 mM EDTA-4Na buffer (pH 5.5). All inhibitors were prepared in dimethyl sulfoxide (DMSO). In vitro assays for cathepsin S were conducted with Z-Val-Val-AMC (BACHEM, 1-1160) as a substrate. Samples were pre-incubated for 10 minutes at 4° C. Reaction was initiated by the addition of enzyme to samples, which were then incubated for 30 minutes at 37° C. The florescence of AMC (7-amino-4-methylcoumarin) released was monitored at 465 nm (excitation wavelength 360 nm), using fluorescence spectrophotometer.
as §4

[6] = molecular target: T5, Recombinant human cathepsin K (Homo sapiens, UniProt P43235); assay: Inhibition of cathepsin K activity (Z-Phe-Arg-AMC fluorescence assay); conditions: 25 uM Z-Phe-Arg-AMC, pH 5.5, 1 hour at 37° C.
T5 construct: made in house
T5 sequence (P43235 115-329): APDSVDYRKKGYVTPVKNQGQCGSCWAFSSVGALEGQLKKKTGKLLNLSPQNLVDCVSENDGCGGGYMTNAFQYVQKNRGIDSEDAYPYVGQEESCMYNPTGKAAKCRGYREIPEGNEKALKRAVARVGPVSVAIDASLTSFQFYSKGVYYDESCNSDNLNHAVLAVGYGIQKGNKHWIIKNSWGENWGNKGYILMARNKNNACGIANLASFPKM
Description: Test 1: Inhibition of Cathepsin K Activity
Recombinant human cathepsin K was prepared in accordance with Biol, Pharm. Bull, 19(8), 1026-1031 (1996) and J. Biol. Chem. 271, 2126-2132 (1996). Stock solutions of 2.5 mM Z-Phe-Arg-AMC (BACHEM, 1-1160) and all inhibitors were prepared in dimethyl sulfoxide. In vitro assays for cathepsin K were conducted with 25 uM Z-Phe-Arg-AMC as a substrate at pH 5.5 in 100 mM Na acetate buffer containing 20 mM cysteine and 5 mM EDTA in the presence of 2% final concentration of DMSO. Reaction was initiated by the addition of enzyme to samples, which were then incubated for 1 hour at 37° C. The fluorescence was monitored at 460 nm (excitation wavelength 360 nm) using fluorescence plate reader.
The concentrations of the test compounds, which inhibit 50% of cathepsin K activity, are represented as IC50 in Table 1.

T1 sequence (Q3ZCJ8 25-463): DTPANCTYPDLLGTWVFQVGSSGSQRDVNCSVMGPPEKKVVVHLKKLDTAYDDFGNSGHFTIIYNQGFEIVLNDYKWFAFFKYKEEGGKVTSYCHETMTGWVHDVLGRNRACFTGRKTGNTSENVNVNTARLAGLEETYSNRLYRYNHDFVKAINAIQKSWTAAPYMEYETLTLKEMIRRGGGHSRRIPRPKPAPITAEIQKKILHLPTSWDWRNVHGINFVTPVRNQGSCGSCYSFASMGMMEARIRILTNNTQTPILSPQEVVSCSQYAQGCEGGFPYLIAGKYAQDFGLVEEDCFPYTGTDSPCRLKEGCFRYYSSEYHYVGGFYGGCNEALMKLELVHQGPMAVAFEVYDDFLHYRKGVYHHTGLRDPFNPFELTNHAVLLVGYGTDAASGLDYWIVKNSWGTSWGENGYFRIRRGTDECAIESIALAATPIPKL

pIC50 [6] | SMILES | also measured
– | O=C(NC1(C(=O)NC2CCN(c3ccccc3N3CC=CC3)CC2=O)CCCCC1)c1cc2ccccc2o1 (stereo not shown) [Example 57] | IC50 [1]: > 1000 nM; IC50 [2]: > 1000 nM; IC50 [3]: > 1000 nM; IC50 [4]: 285 nM; IC50 [5]: 731 nM
9.39 | CS(=O)(=O)c1ccccc1N1CCC(NC(=O)C2(NC(=O)c3cc4cc(OCCN5CCOCC5)ccc4o3)CCCCC2)C(=O)C1 (stereo not shown) [Example 161, 4-[N-[1-[N-(5-(2-morpholinethoxy)benzofuran-2-ylcarbonyl)amino]cyclohexanecarbonyl]amino]-1-(2-methanesulfonylphenyl)piperidin-3-one] | –
9.35 | CS(=O)(=O)c1ccccc1N1CCC(NC(=O)C2(NC(=O)c3cc4cc(OCCN5CCCC5)ccc4o3)CCCCC2)C(=O)C1 (stereo not shown) [Example 162, 4-[N-[1-[N-(5-(2-pyrrolidinethoxy)benzofuran-2-ylcarbonyl)amino]cyclohexanecarbonyl]amino]-1-(2-methanesulfonylphenyl)piperidin-3-one] | –
9.26 | CS(=O)(=O)c1ccccc1N1CCC(NC(=O)C2(NC(=O)c3cc4cc(OCCN5CCCCC5)ccc4o3)CCCCC2)C(=O)C1 (stereo not shown) [Example 163, 4-[N-[1-[N-(5-(2-piperidinethoxy)benzofuran-2-ylcarbonyl)amino]cyclohexanecarbonyl]amino]-1-(2-methanesulfonylphenyl)piperidin-3-one] | –
9.28 | CS(=O)(=O)c1ccccc1N1CCC(NC(=O)C2(NC(=O)c3cc4cc(OCCN5CCOCC5)ccc4o3)CCCCC2)C(=O)C1 (stereo not shown) [Example 164, 4-[N-[1-[N-(5-(2-morpholinethoxy)benzofuran-2-ylcarbonyl)amino]cyclohexanecarbonyl]amino]-1-(2-methanesulfonylphenyl)piperidin-3-one hydrochloride] | –
8.79 | CS(=O)(=O)c1ccccc1N1CCC(NC(=O)C2(NC(=O)c3cc4cc(OCCN5CCCC5)ccc4o3)CCCCC2)C(=O)C1 (stereo not shown) [Example 165, 4-[N-[1-[N-(5-(2-pyrrolidinethoxy)benzofuran-2-ylcarbonyl)amino]cyclohexanecarbonyl]amino]-1-(2-methanesulfonylphenyl)piperidin-3-one hydrochloride] | –
9.15 | CS(=O)(=O)c1ccccc1N1CCC(NC(=O)C2(NC(=O)c3cc4cc(OCCN5CCCCC5)ccc4o3)CCCCC2)C(=O)C1 (stereo not shown) [Example 166, 4-[N-[1-[N-(5-(2-piperidinethoxy)benzofuran-2-ylcarbonyl)amino]cyclohexanecarbonyl]amino]-1-(2-methanesulfonylphenyl)piperidin-3-one hydrochloride] | –
8.51 | CS(=O)(=O)c1ccccc1N1CCC(NC(=O)C2(NC(=O)c3ccc(N4CCCC4=O)cc3)CCCCC2)C(=O)C1 (stereo not shown) [Example 167, 4-[N-[1-[N-(4-(2-oxopyrrolidine)benzoyl)amino]cyclohexanecarbonyl]amino]-1-(2-methanesulfonylphenyl)piperidin-3-one] | –
7.80 | CS(=O)(=O)c1ccccc1N1CCC(NC(=O)C2(NC(=O)c3cc(N4CCCC4=O)co3)CCCCC2)C(=O)C1 (stereo not shown) [Example 168, 4-[N-[1-[N-(4-(2-oxopyrrolidine)furan-2-ylcarbonyl)amino]cyclohexanecarbonyl]amino]-1-(2-methanesulfonylphenyl)piperidin-3-one] | –
9.24 | CS(=O)(=O)Nc1cc(F)ccc1N1CCC(NC(=O)C2(NC(=O)c3ccc(OCCN4CCOCC4)cc3)CCCCC2)C(=O)C1 (stereo not shown) [Example 169, 4-[N-[1-[N-(4-(2-morpholinethoxy)benzoyl)amino]cyclohexanecarbonyl]amino]-1-(4-fluoro-2-methanesulfonylaminophenyl)piperidin-3-one] | –
8.77 | O=C(NC1(C(=O)NC2CCN(c3ccc(F)cc3N3CCCC3=O)CC2=O)CCCCC1)c1ccc(OCCN2CCOCC2)cc1 (stereo not shown) [Example 170, 4-[N-[1-[N-(4-(2-morpholinethoxy)benzoyl)amino]cyclohexanecarbonyl]amino]-1-[4-fluoro-2-(pyrrolidin-2-one-1-yl)phenyl]piperidin-3-one] | –
9.11 | CN(C)c1ccc(C(=O)NC2(C(=O)NC3CCN(c4ccc(F)cc4S(C)(=O)=O)CC3=O)CCCCC2)cc1 (stereo not shown) [Example 171, 4-[N-[1-[N-(4-(dimethylamino)benzoyl)amino]cyclohexanecarbonyl]amino]-1-(4-fluoro-2-methanesulfonylphenyl)piperidin-3-one] | –
9.24 | CCN(CC)c1ccc(C(=O)NC2(C(=O)NC3CCN(c4ccc(F)cc4S(C)(=O)=O)CC3=O)CCCCC2)cc1 (stereo not shown) [Example 172, 4-[N-[1-[N-(4-(diethylamino)benzoyl)amino]cyclohexanecarbonyl]amino]-1-(4-fluoro-2-methanesulfonylphenyl)piperidin-3-one] | –
8.80 | CN(C)c1ccc(C(=O)NC2(C(=O)NC3CCN(c4ccc(F)cc4S(C)(=O)=O)CC3=O)CCCCC2)cc1 (stereo not shown) [Example 173, 4-[N-[1-[N-(4-(dimethylamino)benzoyl)amino]cyclohexanecarbonyl]amino]-1-(4-fluoro-2-methanesulfonylphenyl)piperidin-3-one hydrochloride] | –
9.00 | CCN(CC)c1ccc(C(=O)NC2(C(=O)NC3CCN(c4ccc(F)cc4S(C)(=O)=O)CC3=O)CCCCC2)cc1 (stereo not shown) [Example 174, 4-[N-[1-[N-(4-(diethylamino)benzoyl)amino]cyclohexanecarbonyl]amino]-1-(4-fluoro-2-methanesulfonylphenyl)piperidin-3-one hydrochloride] | –
